This is an account of results in patent US7781565B2 (priority 2006, dated 2010).

For the experiment, the system named is NCI-60 cell lines. It is filed as cell-based, human.

Entries after “also recorded” stand apart in the source; their conditions may differ.

With ARGIVRV, the “Cell Line (NCI-60 cell line the peptide is associated with)” value is recorded as “SW620-Colon”.

Turning to GGSTVPQ, the “Cell Line (NCI-60 cell line the peptide and its motif are associated with)” value is reported as “OVCAR-8 Ovarian”.

In the case of SGGDGSV, the “Cell Line (NCI-60 cell line the peptide is associated with)” value is “SNB-75 CNS”.

Turning to QDRVSRS, the “Cell Line with which the peptide (and its tripeptide motif) is associated” value (“Cell Line with which the peptide” below) is recorded as “Hop-92-Lung”.

Consider WLLRGFG, for which the “Cell Line (NCI-60 cell line the peptide and its motif are associated with)” value is recorded as “A498 Renal”.

On to MRGVARK, for which the “Cell Line (NCI-60 cell line the peptide and its motif are associated with)” value is “A498 Renal”.

With PRSSYNE, the “Cell Line with which the peptide” value is recorded as “H460-Lung”.

In the case of PGLGYAL, the “Cell Line the peptide is associated with (peptide recovered from phage library selection on this NCI-60 cell line)” value is “T-47D Breast”.

With TGGSLGA, the “Cell Line with which the peptide” value is recorded as “EKVX-Lung”.

In the case of GVRSMPV, the “Cell Line (NCI-60 cell line the peptide is associated with)” value was “LOX-IMVI Melanoma”.

On to SKYRLRS, for which the “Cell Line with which the peptide” value was “RPMI-8226-Leukemia”.

In the case of QVMMRGS, the “Cell Line with which the peptide” value was “HL-60-Leukemia”.

Regarding DHVSGSV, the “Cell Line the peptide is associated with (peptide recovered from phage library selection on this NCI-60 cell line)” value is reported as “CAIK-1 Renal”.

Consider SHHRSSI, for which the “Cell Line the peptide is associated with (peptide recovered from phage library selection on this NCI-60 cell line)” value is “SN12C Renal”.

For the substance LSRGSVA, the “Cell Line (NCI-60 cell line the peptide and its motif are associated with)” value is given as “M14 Melanoma”.

As to AAVWWAA, the “Cell Line (NCI-60 cell line the peptide and its motif are associated with)” value was “DU-145 Prostate”.

On to KMRIAGR, for which the “Cell Line the peptide is associated with (peptide recovered from phage library selection on this NCI-60 cell line)” value is “SN12C Renal”.

For the substance PVGGVLL, the “Cell Line with which the peptide” value is “A549-Lung”.

As to RLSMASR, the “Cell Line the peptide is associated with (peptide recovered from phage library selection on this NCI-60 cell line)” value is recorded as “ACHN Renal”.

On to LNAGGSG, for which the “Cell Line (NCI-60 cell line the peptide and its motif are associated with)” value is listed as “DU-145 Prostate”.

As for DGGGRVG, the “Cell Line the peptide is associated with (peptide recovered from phage library selection on this NCI-60 cell line)” value is listed as “CAIK-1 Renal”.

On to YRGSMVG, for which the “Cell Line (NCI-60 cell line the peptide is associated with)” value was “COLO-205-Colon”.

With SDRGLVV, the “Cell Line (NCI-60 cell line the peptide is associated with)” value is listed as “HCT-15 Colon”.

As for VGLGHWP, the “Cell Line with which the peptide” value is listed as “Hop-62-Lung”.

On to GAGGGVG, for which the “Cell Line the peptide is associated with (peptide recovered from phage library selection on this NCI-60 cell line)” value is on record as “MDA-MB-435-Breast”.

Take FHVAGGS: the “Cell Line with which the peptide” value was “SR Leukemia”.

As to LLRLSLA, the “Cell Line with which the peptide” value is listed as “H23-Lung”.

Consider KVSVASL, for which the “Cell Line (NCI-60 cell line the peptide and its motif are associated with)” value was “SK-MEL-5 Melanoma”.

MLASAGR: the “Cell Line with which the peptide” value is “HL-60-Leukemia”.

Consider PRSSGPM, for which the “Cell Line the peptide is associated with (peptide recovered from phage library selection on this NCI-60 cell line)” value is “RXF393 Renal”.

Turning to AGGTDRT, the “Cell Line the peptide is associated with (peptide recovered from phage library selection on this NCI-60 cell line)” value is on record as “MDA-MB-231 Breast”.

Take SRSGRLN: the “Cell Line (NCI-60 cell line the peptide and its motif are associated with)” value was “SK-MEL-2 Melanoma”.

On to GHSERLS, for which the “Cell Line the peptide is associated with (peptide recovered from phage library selection on this NCI-60 cell line)” value is listed as “T-47D Breast”.

Turning to FPAVSTE, the “Cell Line the peptide is associated with (peptide recovered from phage library selection on this NCI-60 cell line)” value was “T-47D Breast”.

Consider PGSSFVG, for which the “Cell Line (NCI-60 cell line the peptide is associated with)” value is “HCT-15 Colon”.

Take ELRRLLS: the “Cell Line the peptide is associated with (peptide recovered from phage library selection on this NCI-60 cell line)” value was “TK-10 Renal”.

On to ATIPGGS, for which the “Cell Line (NCI-60 cell line the peptide is associated with)” value is reported as “LOX-IMVI Melanoma”.

As for GESGRLS, the “Cell Line with which the peptide” value is on record as “Hop-92-Lung”.

For NSGSVVS, the “Cell Line the peptide is associated with (peptide recovered from phage library selection on this NCI-60 cell line)” value was “MDA-MB-231 Breast”.

On to DGGRRTD, for which the “Cell Line (NCI-60 cell line the peptide is associated with)” value is on record as “HCT-15 Colon”.

On to GSVSAGA, for which the “Cell Line (NCI-60 cell line the peptide is associated with)” value is recorded as “HT-29 Colon”.

As to IGVRGFF, the “Cell Line with which the peptide” value is on record as “Molt-4-Leukemia”.

On to DGGSLVV, for which the “Cell Line (NCI-60 cell line the peptide is associated with)” value is given as “LOX-IMVI Melanoma”.

As for VRAVCLM, the “Cell Line (NCI-60 cell line the peptide is associated with)” value is given as “SNB-75 CNS”.

As for PRGMARG, the “Cell Line the peptide is associated with (peptide recovered from phage library selection on this NCI-60 cell line)” value is listed as “BT-549 Breast”.

As for FPGSAGS, the “Cell Line the peptide is associated with (peptide recovered from phage library selection on this NCI-60 cell line)” value is reported as “ACHN Renal”.

Take AVWGGLG: the “Cell Line with which the peptide” value is “H226-Lung”.

Turning to TLGLRVP, the “Cell Line the peptide is associated with (peptide recovered from phage library selection on this NCI-60 cell line)” value is recorded as “TK-10 Renal”.

For the substance FWISRAS, the “Cell Line with which the peptide” value is “RPMI-8226-Leukemia”.

ALNRGSR: the “Cell Line the peptide is associated with (peptide recovered from phage library selection on this NCI-60 cell line)” value is “MDA-MB-231 Breast”.

For IAGLAVV, the “Cell Line (NCI-60 cell line the peptide is associated with)” value is “SNB-75 CNS”.

For SELRSIR, the “Cell Line (NCI-60 cell line the peptide is associated with)” value was “COLO-205-Colon”.

ADFFGLV: the “Cell Line with which the peptide” value is given as “RPMI-8226-Leukemia”.

Consider WGVLQLE, for which the “Cell Line (NCI-60 cell line the peptide is associated with)” value is “LOX-IMVI Melanoma”.

As for SRFGPSV, the “Cell Line with which the peptide” value is reported as “H322-Lung”.

TEGSVTV: the “Cell Line with which the peptide” value is listed as “HL-60-Leukemia”.

As for LQGAGIH, the “Cell Line (NCI-60 cell line the peptide and its motif are associated with)” value was “A498 Renal”.

Regarding SYGLVLP, the “Cell Line with which the peptide” value is recorded as “Hop-92-Lung”.

On to GRGSFES, for which the “Cell Line with which the peptide” value was “SR Leukemia”.

For the substance MPGSSRP, the “Cell Line the peptide is associated with (peptide recovered from phage library selection on this NCI-60 cell line)” value was “RXF393 Renal”.

Take SPTGGRR: the “Cell Line (NCI-60 cell line the peptide is associated with)” value is “LOX-IMVI Melanoma”.

Regarding YWQHRVS, the “Cell Line (NCI-60 cell line the peptide is associated with)” value was “HCT-116 Colon”.

SRLSYRG: the “Cell Line with which the peptide” value is “RPMI-8226-Leukemia”.

For the substance AYYSLRS, the “Cell Line (NCI-60 cell line the peptide is associated with)” value was “KM-12C Colon”.

As to VHRVSGG, the “Cell Line with which the peptide” value is given as “RPMI-8226-Leukemia”.

As for GSVLMRG, the “Cell Line (NCI-60 cell line the peptide and its motif are associated with)” value was “OVCAR-4 Ovarian”.

Turning to ARSSHRA, the “Cell Line (NCI-60 cell line the peptide is associated with)” value is given as “HCT-116 Colon”.

For RQTTGAV, the “Cell Line with which the peptide” value is “K-562-Leukemia”.

As for VLLSAGL, the “Cell Line the peptide is associated with (peptide recovered from phage library selection on this NCI-60 cell line)” value is on record as “RXF393 Renal”.

AATLLSF: the “Cell Line with which the peptide” value is recorded as “K-562-Leukemia”.

In the case of GGSSLDA, the “Cell Line (NCI-60 cell line the peptide is associated with)” value was “HCT-116 Colon”.

As for HAAHGLV, the “Cell Line with which the peptide” value is on record as “Hop-92-Lung”.

For GRWTGSS, the “Cell Line the peptide is associated with (peptide recovered from phage library selection on this NCI-60 cell line)” value was “MCF-7 Breast”.

LYMGGSH: the “Cell Line the peptide is associated with (peptide recovered from phage library selection on this NCI-60 cell line)” value was “TK-10 Renal”.

In the case of TQVEARG, the “Cell Line the peptide is associated with (peptide recovered from phage library selection on this NCI-60 cell line)” value is recorded as “HS 578 T Breast”.

LVSVNGA: the “Cell Line (NCI-60 cell line the peptide is associated with)” value is “SNB-19 CNS; also recorded: SF-539 CNS”.

Take LQRGVAR: the “Cell Line (NCI-60 cell line the peptide and its motif are associated with)” value is recorded as “OVCAR-5 Ovarian”.

Consider RVAAGGL, for which the “Cell Line the peptide is associated with (peptide recovered from phage library selection on this NCI-60 cell line)” value is “T-47D Breast”.

Consider TWIGRVS, for which the “Cell Line (NCI-60 cell line the peptide is associated with)” value was “LOX-IMVI Melanoma”.

Consider WVSGRLG, for which the “Cell Line (NCI-60 cell line the peptide is associated with)” value is recorded as “COLO-205-Colon”.

Turning to RLGSSGL, the “Cell Line the peptide is associated with (peptide recovered from phage library selection on this NCI-60 cell line)” value is “RXF393 Renal”.
